Laboratory results: US10829492B2, “Amino pyrazolopyrimidine compound used as neurotrophic factor tyrosine kinase receptor inhibitor” (CHIA TAI TIANQING PHARMACEUTICAL GROUP CO., LTD., priority 2016, dated 2020)
pIC50: −log10 of the molar value.

Legend:
[1] = molecular target: JAK2 kinase (Homo sapiens (Human), UniProt O60674); experiment: HTRF assay for inhibitory activity (IC50) against JAK2 kinase; type: biochemical; details: ATP 5 μM, kinase 0.05 nM
Method: 2. Assay for Inhibitory Activity (IC50) Against JAK2 Kinase
A testing platform for JAK2 kinase activity was established based on Homogeneous Time-Resolved Fluorescence (HTRF) assay, and the activities of the compounds were tested using the platform. The compounds were subjected to three-fold gradient dilution with 100% DMSO with a starting concentration of 1 mM (11 concentrations in total). 4 μL of diluted sample for each concentration was added to 96 μL of reaction buffer (50 mM HEPES, pH7.4, 10 mM MgCl2, 1 mM EDTA, 0.01% Tween-20, 0.005% BSA and 2 mM DTT) and mixed homogeneously. 2.5 μL of the resulting liquid was then added to a 384-well plate (OptiPlate-384, purchased from PerkinElmer), and 5 μL of JAK2 kinase (purchased from Carna, and the final concentration thereof is 0.05 nM) was added, and mixed homogeneously by centrifugation. Then 2.5 μL of a mixture of ATP (the final concentration is 5 μM) and TK peptide (HTRF® KinEASE™-TK, purchased from Cisbio, and the final concentration is 100 nM) was added to initiate the reaction (the total reaction volume is 10 μL). The 384-well plate was placed in an incubator to incubate for 120 min at 23° C. Then the reaction was terminated by adding 5 μL of Eu3+ cryptate-labled anti-phosphotyrosine antibody (purchased from Cisbio), and 5 μL of Streptavidin-XL-665 (HTRF® KinEASE™-TK, purchased from Cisbio). After incubated for 1 hr in the incubator, the fluorescence values were read on Envision (purchased from PerkinElmer). The excitation wavelength was 320 nm, and the emission wavelengths for detection were 665 nm and 620 nm. The enzymatic activity was represented by a ratio of the two readout at the two emission wavelengths. The enzymatic activity for each compound was tested at 11 concentrations, and IC50 values of the compounds were obtained by calculating the data using GraFit6.0 software (Erithacus Software).

[2] = molecular target: TrkA^G667C (Kinase domain) kinase (Homo sapiens (Human), UniProt P04629, G667C); experiment: HTRF assay for inhibitory activity (IC50) against TrkA^G667C kinase; type: biochemical; details: mutant TrkA kinase, ATP 15 μM, kinase 0.5 nM
Sequence of TrkA^G667C (Kinase domain) kinase (P04629 510-781 G667C): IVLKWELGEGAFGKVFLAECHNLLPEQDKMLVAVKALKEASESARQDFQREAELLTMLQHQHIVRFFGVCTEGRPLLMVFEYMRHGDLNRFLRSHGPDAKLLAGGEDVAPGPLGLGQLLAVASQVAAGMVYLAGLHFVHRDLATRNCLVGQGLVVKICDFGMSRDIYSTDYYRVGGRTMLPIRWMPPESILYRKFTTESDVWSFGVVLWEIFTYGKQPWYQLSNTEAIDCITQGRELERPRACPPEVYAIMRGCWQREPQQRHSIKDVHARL
Method: 3. Assay for Inhibitory Activity (IC50) Against TrkA^G667C Kinase
TrkA^G667C (Kinase domain) kinase was expressed in Sf9 cells (purchased from Invitrogen) using pIEX-Bac-4 (purchased from Merck), and purified by using Ni column affinity chromatography on AKTA Purifier (GE company). A testing platform for TrkA^G667C kinase activity was established based on Homogeneous Time-Resolved Fluorescence (HTRF) assay, and the activities of the compounds were tested using the platform. The compounds were subjected to five-fold gradient dilution with 100% DMSO with a starting concentration of 1 mM (8 concentrations in total). 4 μL of diluted sample for each concentration was added to 96 μL of reaction buffer (50 mM HEPES, pH7.4, 5 mM MgCl2, 1 mM NaVO3, 0.001% Tween-20, 0.01% BSA and 1 mM DTT) and mixed homogeneously to be used as a 4* compound. The reaction buffer was used to formulate 2* TrkA^G667C kinases (the final concentration was 0.5 nM) and a 4* substrate mixture (ATP+TK peptide) (wherein, the final concentration of ATP was 15 μM; TK peptide, HTRF® KinEASE™-TK, was purchased from Cisbio, and the final concentration thereof was 100 nM) for use. 2.5 μL of the 4* compound was added to a 384-well plate (OptiPlate-384, purchased from PerkinElmer), and then 5 μL of the 2* TrkA^G667C kinases were added, and mixed homogeneously by centrifugation. Then 2.5 μL of the 4* substrate mixture was added to initiate the reaction (the total reaction volume is 10 μL). The 384-well plate was placed in an incubator to incubate for 60 min at 23° C. Then the reaction was terminated by adding 5 μL of Eu3+ cryptate-labeled anti-phosphotyrosine antibody (HTRF KinEASE™-TK, purchased from Cisbio), and 5 μL of Streptavidin-XL-665 (HTRF® KinEASE™-TK, purchased from Cisbio). After incubated for 1 h in the incubator, the fluorescence values were read on Envision (purchased from PerkinElmer). The excitation wavelength was 320 nm, and the emission wavelengths for detection were 665 nm and 620 nm. The enzymatic activity was represented by a ratio of the two readout at the two emission wavelengths. […]

[3] = molecular target: TrkA kinase (Homo sapiens (Human), UniProt P04629); experiment: HTRF assay for inhibitory activity (IC50) against NTRK kinase, TrkA; type: biochemical; details: kinase 0.5 nM
Sequence of TrkA kinase (P04629 33-796): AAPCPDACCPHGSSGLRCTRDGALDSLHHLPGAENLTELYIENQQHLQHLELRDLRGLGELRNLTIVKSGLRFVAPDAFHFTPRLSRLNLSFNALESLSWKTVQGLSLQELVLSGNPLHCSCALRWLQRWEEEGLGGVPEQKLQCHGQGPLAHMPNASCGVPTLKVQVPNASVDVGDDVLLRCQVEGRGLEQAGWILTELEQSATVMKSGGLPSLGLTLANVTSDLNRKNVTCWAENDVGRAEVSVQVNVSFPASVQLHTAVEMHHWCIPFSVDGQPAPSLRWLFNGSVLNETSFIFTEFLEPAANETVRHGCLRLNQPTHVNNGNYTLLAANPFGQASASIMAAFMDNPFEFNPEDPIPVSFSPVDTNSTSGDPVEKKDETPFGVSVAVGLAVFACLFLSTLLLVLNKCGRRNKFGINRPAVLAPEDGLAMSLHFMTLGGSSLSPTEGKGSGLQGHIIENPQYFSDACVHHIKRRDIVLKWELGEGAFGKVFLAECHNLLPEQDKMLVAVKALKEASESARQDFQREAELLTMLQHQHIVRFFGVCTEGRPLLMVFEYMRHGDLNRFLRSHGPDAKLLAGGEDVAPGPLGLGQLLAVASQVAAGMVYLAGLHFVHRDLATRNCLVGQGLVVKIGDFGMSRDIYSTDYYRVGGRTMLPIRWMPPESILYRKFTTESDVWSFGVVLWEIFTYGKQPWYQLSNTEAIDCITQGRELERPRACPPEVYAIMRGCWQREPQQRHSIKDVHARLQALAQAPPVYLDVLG
Method: (§1) 1. Assay for Inhibitory Activity (IC50) Against NTRK Kinase
(§2) A testing platform for TrkA, TrkB and TrkC kinase activity was established based on Homogeneous Time-Resolved Fluorescence (HTRF) assay, and the activities of the compounds were tested using the platform. The compounds were subjected to three-fold gradient dilution with 100% DMSO with a starting concentration of 1 mM (11 concentrations in total). 4 μL of diluted sample for each concentration was added to 96 μL of reaction buffer (50 mM HEPES, pH7.4, 5 mM MgCl2, 1 mM NaVO3, 0.001% Tween-20, 0.01% BSA and 1 mM DTT) and mixed homogeneously to be used as a 4* compound. The reaction buffer was used to formulate 2* TrkA, TrkB and TrkC kinases (purchased from Carna Biosciences 08-186, 08-187, 08-197, and the final concentrations thereof were 0.5 nM, 0.1 nM, and 1 nM, respectively) and 4* substrate mixture (ATP+TK peptide) (wherein the final concentrations of ATP were 40 μM, 50 μM, and 20 μM, respectively; TK peptide, HTRF® KinEASE™-TK, was purchased from Cisbio, and the final concentration thereof was 100 nM) for use. 2.5 μL of the 4* compound was added to a 384-well plate (OptiPlate-384, purchased from PerkinElmer), and then 5 μL of the 2* TrkA, TrkB and TrkC kinases were added, and mixed homogeneously by centrifugation. Then 2.5 μL of the 4* substrate mixture was added to initiate the reaction (the total reaction volume is 10 μL). The 384-well plate was placed in an incubator and incubated for 60 min at 23° C. Then the reaction was terminated by adding 5 μL of Eu3+ cryptate-labeled anti-phosphotyrosine antibody (HTRF® KinEASE™-TK, purchased from Cisbio), and 5 μL of Streptavidin-XL-665 (HTRF® KinEASE™-TK, purchased from Cisbio). After incubated for 1 hr in the incubator, the fluorescence values were read on Envision (purchased from PerkinElmer). The excitation wavelength was 320 nm, and the emission wavelengths for detection were 665 nm and 620 nm. The enzymatic activity was represented by a ratio of the two readout at the two emission wavelengths. The enzymatic activity for each compound was tested at 11 concentrations, and IC50 values of the compounds were obtained by calculating the data using GraFit6.0 software (Erithacus Software).

[4] = molecular target: TrkC kinase (Homo sapiens (Human), UniProt Q16288); experiment: HTRF assay for inhibitory activity (IC50) against NTRK kinase, TrkC; type: biochemical; details: ATP 20 μM, kinase 1 nM
Sequence of TrkC kinase (Q16288 32-839): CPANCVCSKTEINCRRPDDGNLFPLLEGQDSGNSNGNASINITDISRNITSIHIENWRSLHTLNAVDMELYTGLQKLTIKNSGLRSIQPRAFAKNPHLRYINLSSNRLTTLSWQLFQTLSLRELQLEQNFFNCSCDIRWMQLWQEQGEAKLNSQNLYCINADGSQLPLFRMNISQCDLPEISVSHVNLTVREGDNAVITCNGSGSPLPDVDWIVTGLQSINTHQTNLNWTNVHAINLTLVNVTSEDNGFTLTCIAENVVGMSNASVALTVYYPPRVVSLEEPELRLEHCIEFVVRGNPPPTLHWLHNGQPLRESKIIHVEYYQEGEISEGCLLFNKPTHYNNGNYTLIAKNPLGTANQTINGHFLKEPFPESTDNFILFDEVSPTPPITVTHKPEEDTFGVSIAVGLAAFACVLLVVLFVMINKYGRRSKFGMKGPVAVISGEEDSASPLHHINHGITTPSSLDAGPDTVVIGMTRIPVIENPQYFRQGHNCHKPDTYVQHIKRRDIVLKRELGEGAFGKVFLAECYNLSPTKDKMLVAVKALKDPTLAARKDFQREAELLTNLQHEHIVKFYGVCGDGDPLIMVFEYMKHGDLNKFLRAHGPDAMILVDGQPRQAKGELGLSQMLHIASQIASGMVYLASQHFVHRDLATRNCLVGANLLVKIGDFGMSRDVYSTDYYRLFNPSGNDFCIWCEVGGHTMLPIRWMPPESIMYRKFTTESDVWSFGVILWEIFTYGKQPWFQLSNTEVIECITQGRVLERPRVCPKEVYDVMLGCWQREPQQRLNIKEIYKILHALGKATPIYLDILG
Method: as §1, §2

[5] = molecular target: TrkB kinase (Homo sapiens (Human), UniProt Q16620); experiment: HTRF assay for inhibitory activity (IC50) against NTRK kinase, TrkB; type: biochemical; details: ATP 50 μM, kinase 0.1 nM
Sequence of TrkB kinase (Q16620 32-822): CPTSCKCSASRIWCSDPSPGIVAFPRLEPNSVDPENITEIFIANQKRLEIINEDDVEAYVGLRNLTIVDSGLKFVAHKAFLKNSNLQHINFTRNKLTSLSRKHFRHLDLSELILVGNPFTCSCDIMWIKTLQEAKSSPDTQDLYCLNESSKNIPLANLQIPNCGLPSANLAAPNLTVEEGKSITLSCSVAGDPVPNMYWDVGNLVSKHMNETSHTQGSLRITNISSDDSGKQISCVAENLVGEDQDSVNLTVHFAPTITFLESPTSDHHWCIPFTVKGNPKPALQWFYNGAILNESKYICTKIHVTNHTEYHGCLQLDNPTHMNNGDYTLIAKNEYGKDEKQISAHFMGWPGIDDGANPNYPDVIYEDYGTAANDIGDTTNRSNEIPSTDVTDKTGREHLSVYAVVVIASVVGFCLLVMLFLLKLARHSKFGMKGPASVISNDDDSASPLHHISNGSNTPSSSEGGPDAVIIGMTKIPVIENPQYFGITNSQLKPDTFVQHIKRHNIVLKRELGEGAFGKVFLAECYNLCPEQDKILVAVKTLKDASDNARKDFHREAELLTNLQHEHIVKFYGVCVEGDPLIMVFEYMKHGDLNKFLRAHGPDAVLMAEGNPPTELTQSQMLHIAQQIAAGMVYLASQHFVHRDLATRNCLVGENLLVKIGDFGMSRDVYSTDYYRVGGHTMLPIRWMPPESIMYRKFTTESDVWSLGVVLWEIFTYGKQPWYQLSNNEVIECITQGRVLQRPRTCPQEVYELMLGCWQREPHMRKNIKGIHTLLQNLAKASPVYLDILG
Method: as §1, §2

[6] = Pharmacokinetic assay in rats; type: in vivo; details: rat, po, male SD rats, 5 mg/kg single intragastric administration, plasma; for AUC(0-inf): read-out: AUCINF_obs
Method: Male SD rats were available from Beijing Vital River Laboratory Animal Technology Co., Ltd. The rats were allocated with three rats per group, and separately administered the suspension of a sample to be tested (5 mg/kg) by single intragastric administration. Before the experiment, the animals were fasted overnight, and the fasting time was from 10 hrs before administration to 4 hrs after administration. After administration, a blood sample was taken at 0.25 hr, 0.5 hr, 1 hr, 2 hrs, 4 hrs, 6 hrs, 8 hrs and 24 hrs. After the animals were narcotized with isoflurane using an anaesthesia machine for small animals, 0.3 mL of whole blood was taken from fundus venous plexus, and placed in a heparin anticoagulant tube. At 4° C., the sample was centrifuged at 4000 rpm for 5 min, and plasma was transferred to a centrifuge tube and preserved at −80° C. until the analysis was started. The sample in plasma was extracted by the protein precipitation method, and the extracted liquid was analyzed by LC/MS/MS.

Sequence of JAK2 kinase (O60674 whole entry): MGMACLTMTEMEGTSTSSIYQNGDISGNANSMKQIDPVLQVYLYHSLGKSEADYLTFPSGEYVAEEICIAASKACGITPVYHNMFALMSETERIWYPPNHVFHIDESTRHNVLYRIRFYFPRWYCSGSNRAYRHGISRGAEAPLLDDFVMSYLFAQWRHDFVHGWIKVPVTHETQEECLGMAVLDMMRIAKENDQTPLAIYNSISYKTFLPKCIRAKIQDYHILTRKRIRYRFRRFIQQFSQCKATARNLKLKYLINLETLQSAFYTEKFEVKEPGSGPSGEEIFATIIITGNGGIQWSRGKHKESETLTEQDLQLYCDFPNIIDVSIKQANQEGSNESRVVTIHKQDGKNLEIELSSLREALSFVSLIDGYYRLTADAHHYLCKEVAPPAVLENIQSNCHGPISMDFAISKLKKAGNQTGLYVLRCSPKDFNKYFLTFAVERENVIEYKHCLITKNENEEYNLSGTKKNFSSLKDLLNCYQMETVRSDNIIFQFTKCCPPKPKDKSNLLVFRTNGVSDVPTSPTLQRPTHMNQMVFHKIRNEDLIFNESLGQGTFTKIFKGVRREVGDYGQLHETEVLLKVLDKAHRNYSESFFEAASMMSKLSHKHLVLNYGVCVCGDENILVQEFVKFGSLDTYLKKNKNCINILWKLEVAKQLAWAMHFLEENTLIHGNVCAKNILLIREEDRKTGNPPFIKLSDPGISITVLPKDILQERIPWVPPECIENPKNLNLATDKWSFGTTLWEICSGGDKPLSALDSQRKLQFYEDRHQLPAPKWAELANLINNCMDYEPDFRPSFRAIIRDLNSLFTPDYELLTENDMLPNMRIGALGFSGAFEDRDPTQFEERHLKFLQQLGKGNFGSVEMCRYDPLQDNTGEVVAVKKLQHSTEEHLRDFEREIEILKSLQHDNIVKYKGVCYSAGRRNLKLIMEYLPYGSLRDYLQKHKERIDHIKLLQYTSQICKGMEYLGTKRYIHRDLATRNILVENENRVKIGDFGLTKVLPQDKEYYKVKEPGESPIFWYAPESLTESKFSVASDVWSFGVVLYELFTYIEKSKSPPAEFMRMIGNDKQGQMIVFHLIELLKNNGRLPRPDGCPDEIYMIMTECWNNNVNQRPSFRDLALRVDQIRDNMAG

Compound | pIC50 [1] | pIC50 [2] | pIC50 ([3]; Table 1, ATP 40 μM) | pIC50 ([3]; Table 2, ATP 40 μM) | pIC50 [4] | pIC50 [5] | Cmax [6] | Tmax [6] | half-life [6] | AUC(0-inf) [6]
CNC(=O)c1c(N)nn2ccc(N3C[C@@H](F)C[C@@H]3c3cc(F)ccc3F)nc12 [Example 39, 2-amino-5-((2R,4S)-2-(2,5-difluorophenyl)-4-fluoropyrrolidin-1-yl)-N-methylpyrazolo[1,5-a]pyrimidine-3-carboxamide] | < 8.00 | > 8.00 | > 9.00 | > 9.00 | > 9.00 | > 9.00 | 276 ng/mL | 1.67 h | 1.46 h | 876 ng·h/mL
Nc1nn2ccc(N3CCC[C@@H]3c3cc(F)ccc3F)nc2c1C(=O)N[C@H]1CC[C@H](O)CC1 [Example 12, 2-amino-5-((R)-2-(2,5-difluorophenyl)pyrrolidin-1-yl)-N-((trans)-4-hydroxycyclohexyl)pyrazolo[1,5-a]pyrimidine-3-carboxamide] | < 7.70 | > 9.00 | > 9.00 | > 9.00 | > 9.00 | > 9.00 | – | – | – | –
Nc1nn2ccc(N3CCC[C@@H]3c3cc(F)ccc3F)nc2c1C(=O)Nc1ccc(F)cc1 [Example 14, (R)-2-amino-5-(2-(2,5-difluorophenyl)pyrrolidin-1-yl)-N-(4-fluorophenyl)pyrazolo[1,5-a]pyrimidine-3-carboxamide] | < 6.30 | – | > 9.00 | > 9.00 | > 8.00 | > 8.00 | – | – | – | –
NC(=O)c1c(N)nn2ccc(N3C[C@@H](F)C[C@@H]3c3cc(F)ccc3F)nc12 [Example 36, 2-amino-5-((2R,4S)-2-(2,5-difluorophenyl)-4-fluoropyrrolidin-1-yl)pyrazolo[1,5-a]pyrimidine-3-carboxamide] | < 7.00 | > 8.00 | > 9.00 | > 9.00 | > 9.00 | > 9.00 | 488 ng/mL | 1 h | 3.09 h | 2240 ng·h/mL
CCOC(=O)c1c(N)nn2ccc(N3C[C@@H](F)C[C@H]3c3cc(F)ccc3F)nc12 [Example 37, ethyl 2-amino-5-((2S,4S)-2-(2,5-difluorophenyl)-4-fluoropyrrolidin-1-yl)pyrazolo[1,5-a]pyrimidine-3-carboxylate] | – | – | > 6.30 | – | – | – | – | – | – | –
Nc1nn2ccc(N3C[C@@H](F)C[C@@H]3c3cc(F)ccc3F)nc2c1C(=O)NOCCO [Example 50, 2-amino-5-((2R,4S)-2-(2,5-difluorophenyl)-4-fluoropyrrolidin-1-yl)-N-(2-hydroxyethoxy)pyrazolo[1,5-a]pyrimidine-3-carboxamide] | – | – | > 9.00 | – | – | – | – | – | – | –
NC(=O)c1c(N)nn2ccc(N3CCC[C@@H]3c3cc(F)ccc3F)nc12 [Example 4, (R)-2-amino-5-(2-(2,5-difluorophenyl)pyrrolidin-1-yl)pyrazolo[1,5-a]pyrimidine-3-carboxamide] | < 5.70 | – | > 9.00 | > 9.00 | > 8.00 | > 8.00 | – | – | – | –
